Assay results from patent US6274715A, “Tricyclic erythromycin derivatives” (priority 1997, dated 2001).
In brackets after ≈: the same amount, converted by molar mass.

Key:
Format in all cases: cell-based
[1] = tested on: STAPHYLOCOCCUS AUREUS ATCC 6538P; assay: In vitro antibacterial activity, MIC, BHI agar dilution; settings: S. aureus ATCC 6538P, 35-37° C., 20 to 24 hours, unit assumed
H. Influenza Dill AMP R = assay: In vitro antibacterial activity against H. Influenza Dill AMP R, MIC; settings: separate assay, unit assumed
In short: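 Agar dilution in Brain Heart Infusion agar, twelve successive compound dilutions, inoculated by Steers replicator with 1:100 (1:10 for slow growers) culture dilutions. Incubation 35-37° C. for 20 to 24 hours; MIC is lowest concentration giving no growth, slight haze or sparse colonies versus drug-free control.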

[2] = tested on: ENTEROBACTER AEROGENES ATCC 13048; assay: In vitro antibacterial activity, MIC, BHI agar dilution; settings: E. aerogenes ATCC 13048, unit assumed
[3] = tested on: PSEUDOMONAS AERUGINOSA DPHD-2862; assay: as above; settings: P. aeruginosa DPHD-2862, unit assumed
[4] = tested on: STAPHYLOCOCCUS AUREUS A-5278; assay: as above; settings: S. aureus A-5278, unit assumed
[5] = tested on: STAPHYLOCOCCUS AUREUS NCTC10649M; assay: as above; settings: S. aureus NCTC10649M, unit assumed
[6] = tested on: STREPTOCOCCUS PYOGENES EES61; assay: as above; settings: S. pyogenes EES61, unit assumed
[7] = tested on: PSEUDOMONAS AERUGINOSA DPHD-5263; assay: as above; settings: P. aeruginosa DPHD-5263, unit assumed
[8] = tested on: PROVIDENCIA STUARTII CMX 640; settings: P. stuartii CMX 640; BHI agar; unit assumed
CANDIDA ALBICANS CCH 442 = assay: In vitro antibacterial activity, MIC, BHI agar dilution; settings: C. albicans CCH 442, unit assumed
ESCHERICHIA COLI H560 = assay: as above; settings: E. coli H560, unit assumed
[9] = tested on: STAPHYLOCOCCUS AUREUS A5177; assay: as above; settings: S. aureus A5177, unit assumed
ESCHERICHIA COLI KNK 437 = settings: E. coli KNK 437; BHI agar; unit assumed
[10] = tested on: STAPHYLOCOCCUS AUREUS CMX 553; assay: In vitro antibacterial activity, MIC, BHI agar dilution; settings: S. aureus CMX 553, unit assumed
ESCHERICHIA COLI SS = assay: as above; settings: E. coli SS, unit assumed
ESCHERICHIA COLI JUHL = settings: E. coli JUHL; BHI agar; unit assumed
[11] = tested on: STREPTOCOCCUS BOVIS A-5169; assay: In vitro antibacterial activity, MIC, BHI agar dilution; settings: S. bovis A-5169, unit assumed
PSEUDOMONAS CEPACIA 296I = assay: as above; settings: P. cepacia 296I, unit assumed
[12] = tested on: STAPHYLOCOCCUS AUREUS CMX 642A; assay: as above; settings: S. aureus CMX 642A, unit assumed
[13] = tested on: PSEUDOMONAS AERUGINOSA 5007; assay: as above; settings: P. aeruginosa 5007, unit assumed
[14] = tested on: ACINETOBACTER CALCOACETICUS CMX 669; assay: as above; settings: A. calcoaceticus CMX 669, unit assumed
[15] = tested on: STREPTOCOCCUS PYOGENES PIU 2548; assay: as above; settings: S. pyogenes PIU 2548, unit assumed
[16] = tested on: KLEBSIELLA PNEUMONIAE ATCC 8045; assay: as above; settings: K. pneumoniae ATCC 8045, unit assumed
ESCHERICHIA COLI DC-2 = assay: as above; settings: E. coli DC-2, unit assumed
[17] = tested on: STAPHYLOCOCCUS EPIDERMIDIS 3519; settings: S. epidermidis 3519; BHI agar; unit assumed
[18] = tested on: MYCOBACTERIUM SMEGMATIS ATCC 114; assay: In vitro antibacterial activity, MIC, BHI agar dilution; settings: M. smegmatis ATCC 114, unit assumed
[19] = tested on: STREPTOCOCCUS PYOGENES 930; assay: as above; settings: S. pyogenes 930, unit assumed
EN[…] ATCC 8043 = assay: as above; settings: E. faecium ATCC 8043, unit assumed
In short: (§1)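 BHI agar dilution, 12 plates; inoculum 1:100 (1:10 slow-growing strains), Steers replicator; 35-37° C, 20-24 h. MIC = lowest conc. with no growth/slight haze/sparse colonies vs growth control, visual read. Erythromycin A reference plate.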

STR[…] 508 = assay: as above; settings: S. agalactiae CMX 508, unit assumed
In short: as §1

M[…] ATCC 9341 = assay: as above; settings: M. luteus ATCC 9341, unit assumed
In short: as §1

M[…] ATCC 4698 = assay: as above; settings: M. luteus ATCC 4698, unit assumed
In short: as §1

[20] = tested on: PSEUDOMONAS AERUGINOSA BMH10; assay: as above; settings: P. aeruginosa BMH10, unit assumed
[21] = tested on: PSEUDOMONAS AERUGINOSA K799/61; assay: as above; settings: P. aeruginosa K799/61, unit assumed
[22] = tested on: PSEUDOMONAS AERUGINOSA K799/WT; assay: as above; settings: P. aeruginosa K799/WT, unit assumed
[23] = tested on: STAPHYLOCOCCUS AUREUS 1775; assay: as above; settings: S. aureus 1775, unit assumed

Row | Structure (SMILES) | MIC [1] [µg/mL] | MIC (H. Influenza Dill AMP R) [µg/mL] | MIC [2] [µg/mL] | MIC [3] [µg/mL] | MIC [4] [µg/mL] | MIC [5] [µg/mL] | MIC [6] [µg/mL] | MIC [7] [µg/mL] | MIC [8] [µg/mL] | MIC (CANDIDA ALBICANS CCH 442) [µg/mL] | MIC (ESCHERICHIA COLI H560) [µg/mL] | MIC [9] [µg/mL] | MIC (ESCHERICHIA COLI KNK 437) [µg/mL] | MIC [10] [µg/mL] | MIC (ESCHERICHIA COLI SS) [µg/mL] | MIC (ESCHERICHIA COLI JUHL) [µg/mL] | MIC [11] [µg/mL] | MIC (PSEUDOMONAS CEPACIA 296I) [µg/mL] | MIC [12] [µg/mL] | MIC [13] [µg/mL] | further results
1 | CC[C@H]1OC(=O)[C@H](C)C(=O)[C@H](C)[C@@H](O[C@@H]2O[C@H](C)C[C@H](N(C)C)[C@H]2O)[C@](C)(OC)C[C@@H](C)C2=N[C@@H]3CNC[C@@H]3N3C(=O)O[C@@]1(C)[C@H]3[C@H]2C [Example 19] | 0.39 (≈ 0.574 µM) | 16 (≈ 23.6 µM) | 12.5 (≈ 18.4 µM) | > 100 | > 100 | 0.39 (≈ 0.574 µM) | 0.05 (≈ 0.0737 µM) | > 100 | > 100 | > 100 | 3.1 (≈ 4.57 µM) | 0.39 (≈ 0.574 µM) | 6.2 (≈ 9.13 µM) | 0.39 (≈ 0.574 µM) | 0.2 (≈ 0.295 µM) | 12.5 (≈ 18.4 µM) | 0.005 (≈ 0.00737 µM) | > 100 | 0.39 (≈ 0.574 µM) | > 100 | MIC [14]: 6.2 µg/mL (≈ 9.13 µM); MIC [15]: 0.78 µg/mL (≈ 1.15 µM); MIC [16]: 12.5 µg/mL (≈ 18.4 µM); MIC (ESCHERICHIA COLI DC-2): 6.2 µg/mL (≈ 9.13 µM); MIC [17]: 0.39 µg/mL (≈ 0.574 µM); MIC [18]: 3.1 µg/mL (≈ 4.57 µM); MIC [19]: > 100 µg/mL; MIC (EN[…] ATCC 8043): 0.05 µg/mL (≈ 0.0737 µM); MIC (STR[…] 508): 0.05 µg/mL (≈ 0.0737 µM); MIC (M[…] ATCC 9341): 0.1 µg/mL (≈ 0.147 µM); MIC (M[…] ATCC 4698): 0.2 µg/mL (≈ 0.295 µM); MIC [20]: 50 µg/mL (≈ 73.7 µM); MIC [21]: 0.39 µg/mL (≈ 0.574 µM); MIC [22]: > 100 µg/mL; MIC [23]: > 100 µg/mL
2 | CC[C@H]1OC(=O)[C@H](C)C(=O)[C@H](C)[C@@H](O[C@@H]2O[C@H](C)C[C@H](N(C)C)[C@H]2O)[C@](C)(OC)C[C@@H](C)C2=NC[C@H](CCCc3ccccc3)N3C(=O)O[C@@]1(C)[C@H]3[C@H]2C [Example 40] | 0.78 (≈ 1.03 µM) | 4 (≈ 5.29 µM) | > 100 | > 100 | > 100 | 0.78 (≈ 1.03 µM) | 0.02 (≈ 0.0265 µM) | > 100 | > 100 | > 100 | 25 (≈ 33.1 µM) | 0.78 (≈ 1.03 µM) | > 100 | 0.78 (≈ 1.03 µM) | 0.78 (≈ 1.03 µM) | > 100 | 0.02 (≈ 0.0265 µM) | > 100 | 0.78 (≈ 1.03 µM) | > 100 | MIC [14]: 50 µg/mL (≈ 66.1 µM); MIC [15]: 0.2 µg/mL (≈ 0.265 µM); MIC [16]: > 100 µg/mL; MIC (ESCHERICHIA COLI DC-2): 100 µg/mL (≈ 132 µM); MIC [17]: 0.39 µg/mL (≈ 0.516 µM); MIC [18]: 0.39 µg/mL (≈ 0.516 µM); MIC [19]: 100 µg/mL (≈ 132 µM); MIC (EN[…] ATCC 8043): 0.05 µg/mL (≈ 0.0661 µM); MIC (STR[…] 508): 0.05 µg/mL (≈ 0.0661 µM); MIC (M[…] ATCC 9341): 0.05 µg/mL (≈ 0.0661 µM); MIC (M[…] ATCC 4698): 0.39 µg/mL (≈ 0.516 µM); MIC [20]: > 100 µg/mL; MIC [21]: 0.78 µg/mL (≈ 1.03 µM); MIC [22]: > 100 µg/mL; MIC [23]: > 100 µg/mL
3 | CC[C@H]1OC(=O)[C@H](C)C(=O)[C@H](C)[C@@H](O[C@@H]2O[C@H](C)C[C@H](N(C)C)[C@H]2O)[C@](C)(OC)C[C@@H](C)C2=N[C@H](COCc3cc(C)c4ccccc4n3)CN3C(=O)O[C@@]1(C)[C@H]3[C@H]2C [Example 83] | 0.2 (≈ 0.243 µM) | 16 (≈ 19.4 µM) | > 100 | > 100 | > 100 | 0.2 (≈ 0.243 µM) | 0.01 (≈ 0.0122 µM) | > 100 | > 100 | > 100 | > 100 | 0.2 (≈ 0.243 µM) | > 100 | 0.2 (≈ 0.243 µM) | 1.56 (≈ 1.9 µM) | > 100 | 0.02 (≈ 0.0243 µM) | 50 (≈ 60.8 µM) | 0.2 (≈ 0.243 µM) | > 100 | MIC [14]: 100 µg/mL (≈ 122 µM); MIC [15]: 0.39 µg/mL (≈ 0.474 µM); MIC [16]: > 100 µg/mL; MIC (ESCHERICHIA COLI DC-2): > 100 µg/mL; MIC [17]: 0.39 µg/mL (≈ 0.474 µM); MIC [18]: 0.39 µg/mL (≈ 0.474 µM); MIC [19]: 100 µg/mL (≈ 122 µM); MIC (EN[…] ATCC 8043): 0.05 µg/mL (≈ 0.0608 µM); MIC (STR[…] 508): 0.01 µg/mL (≈ 0.0122 µM); MIC (M[…] ATCC 9341): 0.05 µg/mL (≈ 0.0608 µM); MIC (M[…] ATCC 4698): 0.39 µg/mL (≈ 0.474 µM); MIC [20]: > 100 µg/mL; MIC [21]: 6.2 µg/mL (≈ 7.53 µM); MIC [22]: > 100 µg/mL; MIC [23]: > 100 µg/mL
